Results taken from patent US20260217683A1, “PYRIDAZINONE HETEROCYCLIC COMPOUND MYOSIN II INHIBITOR AND USE THEREOF” (Xizang Haisco Pharmaceutical Co., Ltd., priority 2023, published 2026).
Like-named read-outs stand apart in the source and are kept apart here.

Tests used:
Assay type in all cases: biochemical
[1] = tested on: rabbit skeletal muscle myosin; assay: Inhibition of hydrolysis of ATP by rabbit skeletal muscle myosin
Method: The purpose of this test was to evaluate the ability of compounds to inhibit the hydrolysis of ATP by rabbit skeletal muscle myosin. The determination method was as follows:
• Preformed F-actin filaments (#AKF99-B, Cytoskeleton) were diluted to 1 mg/mL with Reaction buffer (25 mM Tris-HCL, pH 7.5+35 mM KCl+0.1 mM EGTA+1 mM MgCl2); • Rabbit myosin (#MYO2-A, Cytoskeleton) was diluted to 0.1 mg/mL with Resuspension buffer (15 mM Tris-HCL, PH7.5+0.2 M KCl+1 mM MgCl2); • ATP (#BSA04-001, Cytoskeleton) was diluted to 3 mM working solution with 15 mM Tris-HCL (PH=7.5);
• adding 13 μL reaction buffer+12 μL F-actin to actin control wells; • adding 10 μL reaction buffer+12 μL F-actin+3 μL myosin II to positive control wells; • adding 10 μL of compound working solution+12 μL of F-actin+3 μL of myosin II to the compound wells; • adding 5 μL of ATP working solution to all test wells to start the reaction, and simultaneously adding a sample to the Pi standard wells according to the instruction (#BK054, Cytoskeleton); • gently mixing and accurately incubating at 37° C. for 60 min; • adding 70 μL of CytoPhos Reagent (#BK054, Cytoskeleton) to each well and incubating for 10 min to stop the reaction.
• the OD value of each well was detected at 650 nm using the endpoint method. The standard curve was fitted according to Pi concentration and OD value, and the Pi concentration of each test well was obtained. Inhibition (%)=(Pi positive control well-Pi test well)/Pi positive control well*100%. The Inhibition %-[…] curve was fitted with Graphpad Prism 8 software, and IC50 was calculated.

cardiac myosin SII = molecular target: T1, cardiac myosin SII (Bos taurus, UniProt Q9BE39); assay: Inhibition of hydrolysis of ATP by cardiac myosin SII; details: 100 μM compound
T1 construct: purchased Cytoskeleton #MYO3-A
Method: The purpose of this test was to evaluate the ability of compounds to inhibit the hydrolysis of ATP by cardiac myosin SII. The determination method was as follows: • 1. Solution formulation: • Preformed F-actin filaments (#AKF99-B, Cytoskeleton) were diluted to 1 mg/mL with Reaction buffer (15 mM Tris-HCL. PH7.5+10 mM KCl+0.1 mM EGTA+2 mM MgCl2); • Cardiac Muscle myosin (#MYO3-A, Cytoskeleton) was diluted to 1 mg/mL with Resuspension buffer (15 mM Tris-HCL, PH7.5+0.2M KCl+1 mM MgCl2); • ATP (#BSA04-001, Cytoskeleton) was diluted to 3 mM working solution with 15 mM Tris-HCL (PH=7.5); • 2. Formulation of working solution of compounds: the final compound concentration was 100 μM • 3. Experimental steps: • adding 10 μL of compound working solution+12 μL of Preformed F-actin filaments+3 μL of Cardiac Muscle myosin to the compound wells; • adding 10 μL of reaction buffer containing DMSO+12 μL Preformed F-actin filaments +3 μL Cardiac Muscle myosin to positive control wells; • adding 10 μL of reaction buffer containing DMSO+12 μL Preformed F-actin filaments +3 μL Resuspension buffer to negative control wells; • adding 5 μL of 3 mM ATP working solution to all test wells to start the reaction, gently mixing and incubating at 37° C. for 2 h; • after the reaction was completed, taking 6 μL of reaction liquid, adding 24 μL of reaction buffer for 5-fold dilution, then detecting the content of the product Pi with a phosphate kit (#BK054, Cytoskeleton); • adding a sample to Pi standard wells according to the instructions; • adding 70 μL of CytoPhos Reagent (#BK054, Cytoskeleton) to each well and incubating at room temperature for 10 min before detection. • 4. Detection: • the OD value of each well was detected at 650 nm. The standard curve was fitted according to Pi standard concentration and OD value, and the Pi concentration of each test well was obtained. Inhibition (%)=(positive control well−test well)/positive control well*100%.

smooth muscle myosin S1 = molecular target: T2, smooth muscle myosin S1 (Gallus gallus, UniProt P10587); assay: Inhibition of hydrolysis of ATP by smooth muscle myosin S1 fragments; details: 100 μM compound
T2 construct: purchased Cytoskeleton #CS-MYS05
Method: The purpose of this test was to evaluate the ability of compounds to inhibit the hydrolysis of ATP by smooth muscle myosin Si fragments. The determination method was as follows: • 1. Solution formulation • F-actin polymer: Cardiac Actin powder (#CS-AD99, Cytoskeleton) was dissolved in a buffer (5 mM Pipes-KOH solution, PH=7.0, containing 100 μM ATP and 500 μM DTT) to form a 2 mg/mL solution and the solution was left at room temperature for 30 min; then 2 mM MgCl2 and 2 mM EGTA were added and the obtained system was left at room temperature for 40 min; • Smooth muscle SI fragment (#CS-MYS05, Cytoskeleton) was diluted with a pre-cooled PM12 buffer containing 1 mM DTT (12 mM Pipes-KOH solution, PH=7.0, containing 2 mM MgCl2) to form a 0.7 mg/mL solution; • ATP (#BSA04-001, Cytoskeleton) was diluted to 5 mM working solution with 15 mM Tris-HCL (PH=7.5); • 2. […] Experimental steps: • adding 10 μL of compound working solution+6 μL of F-actin polymer+4 μL of Smooth muscle Si fragment solution to the compound wells; • adding 10 μL of PM12 buffer containing DMSO+6 μL of F-actin polymer+4 μL of Smooth muscle S1 fragment solution to positive control wells; • adding 10 μL of PM12 buffer containing DMSO+6 μL of F-actin polymer+4 μL of PM12 buffer to negative control wells; • adding […] of 5 mM ATP working solution to all test wells to start the reaction, gently mixing and incubating at 37° C. for 20 min; • after the reaction was completed, taking 6 μLL of reaction liquid, adding 24 μL of PM12 buffer for 5-fold dilution, then detecting the content of the product Pi with a phosphate kit (#BK054, Cytoskeleton); • adding a standard according to the instructions, adding 70 μL of CytoPhos Reagent (#BK054, Cytoskeleton) to all wells and incubating at room temperature for 10 min before detection. • 4. Detection: • the OD value of each well was detected at 650 nm. The standard curve was fitted according to Pi standard concentration and OD value, and the Pi concentration of each test well was obtained. Inhibition (%)=(positive control well−test well)/positive control well*100%.

[2] = inhibition of hydrolysis of ATP, class symbols, read-out: Rabbit skeletal muscle myosin (IC50)
[3] = read-out: IC50 for inhibition of hydrolysis of ATP by rabbit skeletal muscle myosin

T1 sequence (Q9BE39 whole entry): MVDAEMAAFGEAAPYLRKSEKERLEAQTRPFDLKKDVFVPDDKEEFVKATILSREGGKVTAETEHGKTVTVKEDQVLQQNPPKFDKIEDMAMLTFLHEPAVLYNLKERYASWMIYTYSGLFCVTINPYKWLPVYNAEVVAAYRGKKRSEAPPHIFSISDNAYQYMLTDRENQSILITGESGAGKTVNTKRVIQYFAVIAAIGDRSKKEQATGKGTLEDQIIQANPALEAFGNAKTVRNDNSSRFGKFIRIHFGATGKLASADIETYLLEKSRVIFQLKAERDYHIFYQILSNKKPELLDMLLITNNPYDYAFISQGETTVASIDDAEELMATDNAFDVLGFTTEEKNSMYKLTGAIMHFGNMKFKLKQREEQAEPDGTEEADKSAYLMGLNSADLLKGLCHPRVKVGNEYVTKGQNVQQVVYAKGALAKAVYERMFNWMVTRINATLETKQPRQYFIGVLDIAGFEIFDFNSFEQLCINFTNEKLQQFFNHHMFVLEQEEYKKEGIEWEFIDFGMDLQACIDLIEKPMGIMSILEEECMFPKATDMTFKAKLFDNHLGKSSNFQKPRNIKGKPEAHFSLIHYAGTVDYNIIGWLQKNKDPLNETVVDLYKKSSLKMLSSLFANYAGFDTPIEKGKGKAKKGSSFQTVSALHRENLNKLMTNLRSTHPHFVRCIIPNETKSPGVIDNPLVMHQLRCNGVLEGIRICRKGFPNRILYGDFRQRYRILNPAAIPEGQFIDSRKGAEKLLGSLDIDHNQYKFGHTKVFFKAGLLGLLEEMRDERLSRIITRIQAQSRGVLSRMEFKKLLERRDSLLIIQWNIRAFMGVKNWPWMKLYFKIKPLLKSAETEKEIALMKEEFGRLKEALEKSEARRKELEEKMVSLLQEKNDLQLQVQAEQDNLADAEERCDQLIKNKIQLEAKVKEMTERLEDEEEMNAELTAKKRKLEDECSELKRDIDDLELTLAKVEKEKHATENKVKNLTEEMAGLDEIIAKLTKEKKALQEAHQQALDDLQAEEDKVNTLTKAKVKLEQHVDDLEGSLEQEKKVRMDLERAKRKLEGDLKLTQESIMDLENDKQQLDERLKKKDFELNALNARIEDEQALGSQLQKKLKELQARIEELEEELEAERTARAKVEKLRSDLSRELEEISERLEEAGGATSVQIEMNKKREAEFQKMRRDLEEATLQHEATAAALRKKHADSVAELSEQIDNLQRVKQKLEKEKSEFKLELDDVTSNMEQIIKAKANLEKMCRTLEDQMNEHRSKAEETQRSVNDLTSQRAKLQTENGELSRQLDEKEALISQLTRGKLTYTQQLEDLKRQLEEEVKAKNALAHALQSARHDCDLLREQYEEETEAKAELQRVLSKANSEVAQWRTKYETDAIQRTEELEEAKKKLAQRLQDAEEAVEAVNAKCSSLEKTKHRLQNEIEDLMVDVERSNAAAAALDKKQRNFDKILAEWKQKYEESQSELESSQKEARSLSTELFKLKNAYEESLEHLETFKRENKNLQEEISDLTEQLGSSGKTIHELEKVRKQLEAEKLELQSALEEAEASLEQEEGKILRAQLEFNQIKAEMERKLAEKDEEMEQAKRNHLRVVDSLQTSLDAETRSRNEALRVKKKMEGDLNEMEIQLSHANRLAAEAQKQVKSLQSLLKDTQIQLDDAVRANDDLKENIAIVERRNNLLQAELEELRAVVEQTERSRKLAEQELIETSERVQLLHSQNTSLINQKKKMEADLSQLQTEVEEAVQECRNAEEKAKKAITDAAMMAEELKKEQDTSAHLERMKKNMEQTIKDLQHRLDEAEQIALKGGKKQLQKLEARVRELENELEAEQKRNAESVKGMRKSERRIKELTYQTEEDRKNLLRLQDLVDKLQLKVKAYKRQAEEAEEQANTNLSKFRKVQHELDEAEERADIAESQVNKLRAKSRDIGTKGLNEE
T1 sequence (P85100 whole entry partner): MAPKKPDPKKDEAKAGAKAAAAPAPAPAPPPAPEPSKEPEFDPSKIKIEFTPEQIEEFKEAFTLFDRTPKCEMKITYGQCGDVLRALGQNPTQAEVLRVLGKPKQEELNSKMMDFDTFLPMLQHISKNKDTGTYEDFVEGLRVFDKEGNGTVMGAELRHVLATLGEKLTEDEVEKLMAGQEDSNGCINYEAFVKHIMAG
T1 sequence (Q3SZE5 whole entry partner): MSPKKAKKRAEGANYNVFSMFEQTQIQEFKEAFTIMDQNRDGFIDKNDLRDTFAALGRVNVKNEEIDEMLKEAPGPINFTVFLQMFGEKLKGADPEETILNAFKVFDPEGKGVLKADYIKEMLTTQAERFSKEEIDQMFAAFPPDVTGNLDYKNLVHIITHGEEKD
T2 sequence (P10587 84-789 limits assumed): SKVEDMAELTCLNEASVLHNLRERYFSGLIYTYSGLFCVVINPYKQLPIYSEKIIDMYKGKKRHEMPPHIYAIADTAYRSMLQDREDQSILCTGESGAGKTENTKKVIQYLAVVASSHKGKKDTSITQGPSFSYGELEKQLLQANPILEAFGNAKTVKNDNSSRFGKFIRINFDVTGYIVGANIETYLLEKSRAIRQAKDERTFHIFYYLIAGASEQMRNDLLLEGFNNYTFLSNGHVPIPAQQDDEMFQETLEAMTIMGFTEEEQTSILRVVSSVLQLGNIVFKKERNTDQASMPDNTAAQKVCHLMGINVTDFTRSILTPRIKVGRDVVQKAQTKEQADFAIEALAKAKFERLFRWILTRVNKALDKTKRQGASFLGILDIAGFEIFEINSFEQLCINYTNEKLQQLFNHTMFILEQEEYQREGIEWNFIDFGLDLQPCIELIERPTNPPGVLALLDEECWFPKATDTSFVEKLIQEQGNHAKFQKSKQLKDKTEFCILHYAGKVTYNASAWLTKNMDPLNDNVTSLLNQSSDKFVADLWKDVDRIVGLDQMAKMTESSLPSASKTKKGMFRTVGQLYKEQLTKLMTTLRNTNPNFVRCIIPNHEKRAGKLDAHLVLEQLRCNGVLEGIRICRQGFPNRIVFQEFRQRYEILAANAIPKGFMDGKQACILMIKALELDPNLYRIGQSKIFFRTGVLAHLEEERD
T2 sequence (P02607 whole entry partner, the tested form may be a part): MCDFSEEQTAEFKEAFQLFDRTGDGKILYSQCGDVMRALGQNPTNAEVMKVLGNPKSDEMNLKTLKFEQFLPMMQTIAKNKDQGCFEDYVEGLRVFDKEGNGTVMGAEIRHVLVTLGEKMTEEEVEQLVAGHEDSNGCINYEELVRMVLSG

IC50 [1, 2] [nM] | IC50 [1, 3] [nM] | Compound | other results
< 2500 |  | CC(c1ccc2c(c1)CC2)n1nc(-c2cnc(OCC(F)(F)F)nc2)ccc1=O (single isomer, unassigned) [Compound 64] | 
2500 to 20000 |  | CC(c1ccc2c(c1)CC2)n1nc(-c2cnc(OCC(F)(F)F)nc2)ccc1=O (centres unmarked) [Compound 61] | 
< 2500 |  | O=c1ccc(-c2cnc(OCCC(F)(F)F)nc2)nn1Cc1ccc2c(c1)CC2 [Compound 65] | 
< 2500 |  | O=c1ccc(-c2cnc(OCCF)nc2)nn1Cc1ccc2c(c1)CC2 [Compound 66] | 
< 2500 | 100 | O=c1ccc(-c2cnc(OCCC(F)F)nc2)nn1Cc1ccc2c(c1)CC2 [Compound 68] | 
< 2500 | 100 | O=c1ccc(-c2cnc(OCCCF)nc2)nn1Cc1ccc2c(c1)CC2 [Compound 69] | inhibition at 100 µM (cardiac myosin SII): 19%
< 2500 |  | O=c1ccc(-c2cnc(OCCCCl)nc2)nn1Cc1ccc2c(c1)CC2 [Compound 70] | inhibition at 100 µM (cardiac myosin SII): 18%
< 2500 |  | O=c1ccc(-c2cnc(OCCCF)nc2)nn1Cc1ccc2c(c1)CCC2 [Compound 71] | inhibition at 100 µM (cardiac myosin SII): 21%
< 2500 | 500 | O=c1ccc(-c2cnc(OCCF)nc2)nn1Cc1ccc2c(c1)CCC2 [Compound 75] | 
< 2500 |  | O=c1ccc(-c2cnc(OCCC(F)F)nc2)nn1Cc1ccc2c(c1)CCC2 [Compound 76] | 
< 2500 |  | O=c1ccc(-c2cnc(OCCCCl)nc2)nn1Cc1ccc2c(c1)CCC2 [Compound 77] | 
< 2500 |  | O=c1ccc(-c2cnc(C3CC3)nc2)nn1Cc1ccc2c(c1)CCC2 [Compound 78] | 
2500 to 20000 |  | O=c1ccc(-c2cnc(OCC(F)(F)F)nc2)nn1Cc1ccc2c(c1)CCC2(F)F [Compound 79] | 
< 2500 | 200 | O=c1ccc(-c2cnc(OC3CC3)nc2)nn1Cc1ccc2c(c1)CC2 [Compound 82] | 
< 2500 |  | O=c1ccc(-c2cnc(OC3CC(F)(F)C3)nc2)nn1Cc1ccc2c(c1)CC2 [Compound 83] | 
2500 to 20000 |  | O=c1ccc(-c2cnc(OC3CC(F)(F)C3)nc2)nn1Cc1ccc2c(c1)CCC2 [Compound 85] | 
< 2500 | 200 | O=c1ccc(-c2cnc(OCC3CC3)nc2)nn1Cc1ccc2c(c1)CC2 [Compound 86] | 
< 2500 | 300 | O=c1ccc(-c2cnc(OCC3CC3(F)F)nc2)nn1Cc1ccc2c(c1)CC2 (centres unmarked) [Compound 87] | 
< 2500 | 200 | O=c1ccc(-c2cnc(OC3COC3)nc2)nn1Cc1ccc2c(c1)CC2 [Compound 94] | 
2500 to 20000 |  | O=c1ccc(-c2cnc(OC3CCC(F)(F)CC3)nc2)nn1Cc1ccc2c(c1)CC2 [Compound 96] | inhibition at 100 µM (cardiac myosin SII): -9%
< 2500 | 200 | O=c1ccc(-c2cnc(OCC(F)(F)F)nc2)nn1Cc1ccc2c(c1F)CCC2 [Compound 98] | 

IC50 [1, 2] [nM] | IC50 [1, 3] [nM] | Compound | other results
< 2500 | 800 | O=c1ccc(-c2cnc(OCC(F)(F)F)nc2)nn1Cc1cc2c(cc1F)CCC2 [Compound 99] | 
< 2500 | 100 | O=c1ccc(-c2cnc(OCC(F)F)nc2)nn1Cc1ccc2c(c1)C(F)(F)CC2 [Compound 100] | 
< 2500 | 100 | O=c1ccc(-c2cnc(Oc3cncc(F)c3)nc2)nn1Cc1ccc2c(c1)CC2 [Compound 101] | 
< 2500 | 200 | O=c1ccc(-c2cnc(O[C@@H]3CCOC3)nc2)nn1Cc1ccc2c(c1)CC2 [Compound 107] | 
2500 to 20000 |  | O=c1cc2c(nn1Cc1ccc3c(c1)CC3)-c1cnc(OC3CCOC3)nc1CC2 (centres unmarked) [Compound 122] | 
< 2500 | 400 | O=c1ccc(-c2cnc(Oc3cncc(Cl)c3)nc2)nn1Cc1ccc2c(c1)CCC2 [Compound 132] | inhibition at 100 µM (cardiac myosin SII): 1%
< 2500 | 300 | O=c1ccc(-c2cnc(OCC(F)(F)F)nc2)nn1Cc1ccc2c(c1)C=CC2 [Compound 137] | inhibition at 100 µM (smooth muscle myosin S1): 11%
< 2500 | 200 | O=c1ccc(-c2cnc(OCC(F)(F)F)nc2)nn1Cc1ccc2c(c1)CC=C2 [Compound 138] | 
2500 to 20000 |  | O=C1CCc2ccc(Cn3nc(-c4cnc(Oc5ccnc(C(F)(F)F)c5)nc4)ccc3=O)cc21 [Compound 143] | 
2500 to 20000 |  | O=C1CCc2ccc(Cn3nc(-c4cnc(Oc5cccc(C(F)(F)F)n5)nc4)ccc3=O)cc21 [Compound 144] | 
2500 to 20000 |  | O=C1CCc2ccc(Cn3nc(-c4cnc(Oc5ccc(F)cn5)nc4)ccc3=O)cc21 [Compound 146] | 
< 2500 |  | O=C1CCc2ccc(Cn3nc(-c4cnc(OCC(F)(F)F)nc4)ccc3=O)c(F)c21 [Compound 152] | inhibition at 100 µM (smooth muscle myosin S1): -5%
2500 to 20000 |  | O=C1CCc2ccc(Cn3nc4c(cc3=O)CCc3nc(OCC(F)(F)F)ncc3-4)cc21 [Compound 154] | 
< 2500 | 500 | O=c1ccc(-c2cnc(OCC(F)(F)F)nc2)nn1Cc1ccc2c(c1)CC1CC21 (centres unmarked) [Compound 161] | Cardiac myosin SII (Inhibition @ 100 μM) (cardiac myosin SII; 100 µM): 5%
2500 to 20000 |  | O=C1CCCc2ccc(Cn3nc(-c4cnc(OCC(F)(F)F)nc4)ccc3=O)cc21 [Compound 168] | 
< 2500 | 530 | O=C1CCc2c(Cl)cc(Cn3nc(-c4cnc(Oc5cncc(F)c5)nc4)ccc3=O)cc21 [Compound 173] | 
< 2500 |  | O=C1CCc2c(Cl)cc(Cn3nc(-c4cnc(Oc5cccc(F)n5)nc4)ccc3=O)cc21 [Compound 174] | 
< 2500 | 530 | O=C1CCc2c(Cl)cc(Cn3nc(-c4cnc(Oc5cncc(Cl)c5)nc4)ccc3=O)cc21 [Compound 175] | 
2500 to 20000 |  | O=C1CCc2c1cc(Cn1nc(-c3cnc(OCC(F)(F)F)nc3)ccc1=O)cc2C1CC1 [Compound 177] | 
< 2500 | 100 | O=c1ccc(-c2cnc(OCC(F)F)nc2)nn1Cc1ccc2c(c1)CC2 [compound 60] | 
